Columns and labels:
[1] = target: T1, AKT3 Catalytic Domain (Homo sapiens, UniProt Q9Y243); experiment: Caliper mobility shift kinase activity assay; type: biochemical; conditions: AKT3 CD (122–479); read-out: ATP Km
T1 construct: AKT3 (Q9Y243); CD; His-tag; made in house; host or cells: Escherichia coli

[2] = target: T2, CDK2 + Cyclin A (Homo sapiens, UniProt P24941); experiment: Caliper mobility shift kinase activity assay; type: biochemical; conditions: CDK2 with CCNA2 (Cyclin A); read-out: ATP Km
T2 construct: CDK2 (P24941); 1–299; His-tag; made in house; host or cells: Escherichia coli

[3] = target: T3, CDK2 + Cyclin E (Homo sapiens, UniProt P24941); experiment: Caliper mobility shift kinase activity assay; type: biochemical; conditions: CDK2 with CCNE1 (Cyclin E); read-out: ATP Km
T3 construct: CDK2 (P24941); 1–299; His-tag; made in house; host or cells: Escherichia coli

[4] = target: T4, CHK2 Catalytic Domain (Homo sapiens, UniProt O96017); experiment: Caliper mobility shift kinase activity assay; type: biochemical; conditions: CHK2 CD; read-out: ATP Km
T4 construct: For all of them, we expressed and purified the catalytic domain separately; His-tag; made in house; host or cells: Escherichia coli

[5] = target: T5, DMPK Catalytic Domain (Homo sapiens, UniProt Q09013); experiment: Caliper mobility shift kinase activity assay; type: biochemical; conditions: DMPK CD; read-out: ATP Km
T5 construct: For all of them, we expressed and purified the catalytic domain separately; His-tag; made in house; host or cells: Escherichia coli
T5 sequence (Q09013 71-339 limits assumed): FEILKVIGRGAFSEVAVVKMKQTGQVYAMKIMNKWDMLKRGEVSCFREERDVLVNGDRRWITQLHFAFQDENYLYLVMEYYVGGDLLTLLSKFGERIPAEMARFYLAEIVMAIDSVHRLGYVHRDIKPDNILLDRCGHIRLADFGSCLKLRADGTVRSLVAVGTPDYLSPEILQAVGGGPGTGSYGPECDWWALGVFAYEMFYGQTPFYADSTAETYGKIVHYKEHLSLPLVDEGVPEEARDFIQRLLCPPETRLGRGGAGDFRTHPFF

[6] = target: T6, FES Catalytic Domain (Homo sapiens, UniProt P07332); experiment: Caliper mobility shift kinase activity assay; type: biochemical; conditions: FES CD; read-out: ATP Km
T6 construct: For all of them, we expressed and purified the catalytic domain separately; His-tag; made in house; host or cells: Escherichia coli

[7] = target: T7, FES Catalytic Domain+SH2 (Homo sapiens, UniProt P07332); experiment: Caliper mobility shift kinase activity assay; type: biochemical; conditions: FES CD+SH2; read-out: ATP Km
T7 construct: for 8, we also made a longer version containing one or more additional domains; His-tag; made in house; host or cells: Escherichia coli

[8] = target: T8, PAK4 Catalytic Domain (Homo sapiens, UniProt O96013); experiment: Caliper mobility shift kinase activity assay; type: biochemical; conditions: PAK4 CD; read-out: ATP Km
T8 construct: For all of them, we expressed and purified the catalytic domain separately; His-tag; made in house; host or cells: Escherichia coli
Method: (§1) This ensures comparability of compound potency between the kinases. […] […].
(§2) […]. […] […].
(§3) IC50 was determined once for each compound-kinase combination.

[9] = target: T9, PAK4 Catalytic Domain+PBD (Homo sapiens, UniProt O96013); experiment: Caliper mobility shift kinase activity assay; type: biochemical; conditions: PAK4 CD+PBD; read-out: ATP Km
T9 construct: for 8, we also made a longer version containing one or more additional domains; His-tag; made in house; host or cells: Escherichia coli
Method: as §1, §2, §3

[10] = target: T10, PAK7 Catalytic Domain (Homo sapiens, UniProt Q9P286); experiment: Caliper mobility shift kinase activity assay; type: biochemical; conditions: PAK7 CD; read-out: ATP Km
T10 construct: For all of them, we expressed and purified the catalytic domain separately; His-tag; made in house; host or cells: Escherichia coli

[11] = target: T11, STK3 Catalytic Domain (Homo sapiens, UniProt Q13188); experiment: Caliper mobility shift kinase activity assay; type: biochemical; conditions: STK3 CD; read-out: ATP Km
T11 construct: For all of them, we expressed and purified the catalytic domain separately; His-tag; made in house; host or cells: Escherichia coli
T11 sequence (Q13188 27-278 limits assumed): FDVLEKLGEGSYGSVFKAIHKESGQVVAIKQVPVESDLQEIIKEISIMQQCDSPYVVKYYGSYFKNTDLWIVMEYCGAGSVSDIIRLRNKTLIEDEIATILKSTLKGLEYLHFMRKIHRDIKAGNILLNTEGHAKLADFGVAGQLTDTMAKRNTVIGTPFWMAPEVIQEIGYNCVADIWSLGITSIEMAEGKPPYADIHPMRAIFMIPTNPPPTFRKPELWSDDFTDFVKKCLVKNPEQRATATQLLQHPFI

[12] = target: T12, STK3 Catalytic domain+SARAH (Homo sapiens, UniProt Q13188); experiment: Caliper mobility shift kinase activity assay; type: biochemical; conditions: STK3 CD+SARAH; read-out: ATP Km
T12 construct: for 8, we also made a longer version containing one or more additional domains; His-tag; made in house; host or cells: Escherichia coli
T12 sequence (Q13188 1-491): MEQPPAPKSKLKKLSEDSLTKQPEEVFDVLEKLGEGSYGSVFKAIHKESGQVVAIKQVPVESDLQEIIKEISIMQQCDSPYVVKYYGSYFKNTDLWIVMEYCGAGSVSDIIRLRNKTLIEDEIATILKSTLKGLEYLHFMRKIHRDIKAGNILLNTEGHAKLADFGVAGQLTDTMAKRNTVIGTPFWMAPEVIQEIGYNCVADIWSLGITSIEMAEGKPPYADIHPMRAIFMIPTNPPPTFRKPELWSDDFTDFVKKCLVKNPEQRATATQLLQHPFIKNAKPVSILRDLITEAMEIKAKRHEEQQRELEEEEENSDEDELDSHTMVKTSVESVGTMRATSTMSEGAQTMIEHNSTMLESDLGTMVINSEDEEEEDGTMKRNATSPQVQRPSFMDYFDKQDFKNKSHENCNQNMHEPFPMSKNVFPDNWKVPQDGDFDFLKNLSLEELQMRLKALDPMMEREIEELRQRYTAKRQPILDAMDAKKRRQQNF

[13] = target: T13, SRC Catalytic Domain (Homo sapiens, UniProt P12931); conditions: read-out: ATP Km; SRC CD
[14] = target: T14, SRC Catalytic Domain+SH2+SH3 (Homo sapiens, UniProt P12931); conditions: read-out: ATP Km; SRC CD+SH2/3
[15] = target: T1, AKT3 Catalytic Domain; experiment: Differential Scanning Fluorimetry (DSF) Tm shift; type: binding; conditions: 2 µM protein, 10 µM inhibitor, average of 3 experiments, each in duplicate
[16] = target: T2, CDK2 + Cyclin A; experiment: Differential Scanning Fluorimetry (DSF) Tm shift; type: binding; conditions: CDK2 + Cyclin A; 2 µM protein, 10 µM inhibitor; average of 3 experiments, each in duplicate
[17] = target: T3, CDK2 + Cyclin E; experiment: Differential Scanning Fluorimetry (DSF) Tm shift; type: binding; conditions: CDK2 + Cyclin E; 2 µM protein, 10 µM inhibitor; average of 3 experiments, each in duplicate
[18] = target: T4, CHK2 Catalytic Domain; experiment: Differential Scanning Fluorimetry (DSF) Tm shift; type: binding; conditions: 2 µM protein, 10 µM inhibitor, average of 3 experiments, each in duplicate
[19] = target: T5, DMPK Catalytic Domain; experiment: Differential Scanning Fluorimetry (DSF) Tm shift; type: binding; conditions: 2 µM protein, 10 µM inhibitor, average of 3 experiments, each in duplicate
[20] = target: T15, FAK2 Catalytic Domain (Homo sapiens, UniProt Q14289); experiment: Differential Scanning Fluorimetry (DSF) Tm shift; type: binding; conditions: 2 µM protein, 10 µM inhibitor, average of 3 experiments, each in duplicate
T15 construct: For all of them, we expressed and purified the catalytic domain separately; His-tag; made in house; host or cells: Escherichia coli

[21] = target: T7, FES Catalytic Domain+SH2; experiment: Differential Scanning Fluorimetry (DSF) Tm shift; type: binding; conditions: 2 µM protein, 10 µM inhibitor, average of 3 experiments, each in duplicate
[22] = target: T6, FES Catalytic Domain; experiment: Differential Scanning Fluorimetry (DSF) Tm shift; type: binding; conditions: 2 µM protein, 10 µM inhibitor, average of 3 experiments, each in duplicate
[23] = target: T9, PAK4 Catalytic Domain+PBD; experiment: Differential Scanning Fluorimetry (DSF) Tm shift; type: binding; conditions: 2 µM protein, 10 µM inhibitor, average of 3 experiments, each in duplicate
[24] = target: T8, PAK4 Catalytic Domain; experiment: Differential Scanning Fluorimetry (DSF) Tm shift; type: binding; conditions: 2 µM protein, 10 µM inhibitor, average of 3 experiments, each in duplicate
[25] = target: T10, PAK7 Catalytic Domain; experiment: Differential Scanning Fluorimetry (DSF) Tm shift; type: binding; conditions: 2 µM protein, 10 µM inhibitor, average of 3 experiments, each in duplicate
[26] = target: T14, SRC Catalytic Domain+SH2+SH3; experiment: Differential Scanning Fluorimetry (DSF) Tm shift; type: binding; conditions: 2 µM protein, 10 µM inhibitor, average of 3 experiments, each in duplicate
[27] = target: T12, STK3 Catalytic domain+SARAH; experiment: Differential Scanning Fluorimetry (DSF) Tm shift; type: binding; conditions: 2 µM protein, 10 µM inhibitor, average of 3 experiments, each in duplicate
[28] = target: T11, STK3 Catalytic Domain; experiment: Differential Scanning Fluorimetry (DSF) Tm shift; type: binding; conditions: 2 µM protein, 10 µM inhibitor, average of 3 experiments, each in duplicate
[29] = target: T13, SRC Catalytic Domain; experiment: Differential Scanning Fluorimetry (DSF) Tm shift; type: binding; set-up: For all of them, we expressed and purified the catalytic domain separately; His-tag; made in house; host or cells: Escherichia coli; conditions: 2 µM protein, 10 µM inhibitor, average of 3 experiments, each in duplicate

T10 sequence (Q9P286 449-700 limits assumed): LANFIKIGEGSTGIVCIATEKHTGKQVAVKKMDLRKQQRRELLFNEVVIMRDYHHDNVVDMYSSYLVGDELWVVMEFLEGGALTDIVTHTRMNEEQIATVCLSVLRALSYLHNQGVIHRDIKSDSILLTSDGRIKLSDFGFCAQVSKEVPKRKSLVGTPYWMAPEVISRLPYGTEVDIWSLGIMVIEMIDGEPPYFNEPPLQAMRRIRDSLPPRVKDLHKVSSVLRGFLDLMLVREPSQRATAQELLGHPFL
T9 sequence (O96013 whole entry, the tested form may be a part): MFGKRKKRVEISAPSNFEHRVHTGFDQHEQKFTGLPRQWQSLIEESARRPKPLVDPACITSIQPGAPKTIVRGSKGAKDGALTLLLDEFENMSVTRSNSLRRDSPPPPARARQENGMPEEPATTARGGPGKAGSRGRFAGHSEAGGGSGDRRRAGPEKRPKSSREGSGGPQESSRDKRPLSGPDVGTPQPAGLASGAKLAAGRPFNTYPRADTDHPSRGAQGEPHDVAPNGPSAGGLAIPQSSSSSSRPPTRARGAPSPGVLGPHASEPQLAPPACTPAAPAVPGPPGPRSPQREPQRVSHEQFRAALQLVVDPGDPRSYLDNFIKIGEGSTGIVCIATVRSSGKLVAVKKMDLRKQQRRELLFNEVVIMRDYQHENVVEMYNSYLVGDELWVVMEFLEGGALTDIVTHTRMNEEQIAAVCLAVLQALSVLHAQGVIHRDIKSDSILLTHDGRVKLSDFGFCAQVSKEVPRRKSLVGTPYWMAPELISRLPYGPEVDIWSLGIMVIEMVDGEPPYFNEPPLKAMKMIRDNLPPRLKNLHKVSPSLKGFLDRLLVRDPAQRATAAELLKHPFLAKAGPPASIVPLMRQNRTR
T7 sequence (P07332 448-822 limits assumed): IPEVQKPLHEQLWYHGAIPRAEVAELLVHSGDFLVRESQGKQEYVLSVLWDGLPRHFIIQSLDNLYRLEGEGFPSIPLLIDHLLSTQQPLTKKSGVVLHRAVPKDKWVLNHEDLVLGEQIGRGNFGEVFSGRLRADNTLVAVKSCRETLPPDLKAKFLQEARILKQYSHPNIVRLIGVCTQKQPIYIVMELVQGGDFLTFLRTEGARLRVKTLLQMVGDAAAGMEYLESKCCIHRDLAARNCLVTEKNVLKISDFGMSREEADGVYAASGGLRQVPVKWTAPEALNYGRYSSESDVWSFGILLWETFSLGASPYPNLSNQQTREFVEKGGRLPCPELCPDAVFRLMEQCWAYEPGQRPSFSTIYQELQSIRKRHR
T6 sequence (P07332 561-822 limits assumed): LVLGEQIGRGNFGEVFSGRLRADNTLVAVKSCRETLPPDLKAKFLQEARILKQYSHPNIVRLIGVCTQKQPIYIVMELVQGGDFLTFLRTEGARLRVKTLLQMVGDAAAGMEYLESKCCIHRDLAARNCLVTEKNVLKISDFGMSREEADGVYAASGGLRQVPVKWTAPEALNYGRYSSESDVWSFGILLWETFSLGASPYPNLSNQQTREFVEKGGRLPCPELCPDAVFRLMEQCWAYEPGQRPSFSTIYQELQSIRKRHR
T1 sequence (Q9Y243 122-479): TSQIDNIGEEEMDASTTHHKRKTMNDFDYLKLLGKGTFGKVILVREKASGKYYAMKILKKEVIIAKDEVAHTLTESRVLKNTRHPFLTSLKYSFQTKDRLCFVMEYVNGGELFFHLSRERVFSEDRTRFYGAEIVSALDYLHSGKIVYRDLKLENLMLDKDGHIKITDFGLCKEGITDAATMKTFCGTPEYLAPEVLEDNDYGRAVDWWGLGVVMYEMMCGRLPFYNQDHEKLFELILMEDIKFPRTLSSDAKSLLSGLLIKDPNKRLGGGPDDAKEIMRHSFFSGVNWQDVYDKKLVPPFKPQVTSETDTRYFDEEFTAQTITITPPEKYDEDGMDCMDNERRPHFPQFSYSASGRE
T8 sequence (O96013 321-572 limits assumed): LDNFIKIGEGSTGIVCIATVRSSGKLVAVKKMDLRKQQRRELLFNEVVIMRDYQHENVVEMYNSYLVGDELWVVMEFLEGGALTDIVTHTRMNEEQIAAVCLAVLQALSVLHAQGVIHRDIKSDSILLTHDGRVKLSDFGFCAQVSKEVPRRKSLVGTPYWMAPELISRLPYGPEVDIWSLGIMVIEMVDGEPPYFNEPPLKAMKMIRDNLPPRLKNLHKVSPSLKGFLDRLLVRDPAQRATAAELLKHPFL
T4 sequence (O96017 220-486 limits assumed): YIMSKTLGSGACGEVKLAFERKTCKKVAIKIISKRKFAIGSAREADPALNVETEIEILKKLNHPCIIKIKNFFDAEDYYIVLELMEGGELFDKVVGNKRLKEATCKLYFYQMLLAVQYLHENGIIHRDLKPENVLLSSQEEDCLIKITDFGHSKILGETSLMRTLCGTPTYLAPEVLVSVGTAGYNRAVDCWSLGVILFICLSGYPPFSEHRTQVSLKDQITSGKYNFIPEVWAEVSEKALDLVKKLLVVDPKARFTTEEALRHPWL
T15 sequence (Q14289 425-683 limits assumed): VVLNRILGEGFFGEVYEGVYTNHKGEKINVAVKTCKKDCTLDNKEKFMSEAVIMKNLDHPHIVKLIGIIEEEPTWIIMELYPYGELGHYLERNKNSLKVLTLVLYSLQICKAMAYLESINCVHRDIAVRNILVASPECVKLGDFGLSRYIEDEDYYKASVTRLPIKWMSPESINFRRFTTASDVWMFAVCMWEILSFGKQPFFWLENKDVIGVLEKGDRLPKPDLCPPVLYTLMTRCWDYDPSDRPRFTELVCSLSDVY

Compound	Melting temperature (Tm) shift [15] [degrees Celcius]	Melting temperature (Tm) shift [16] [degrees Celcius]	Melting temperature (Tm) shift [17] [degrees Celcius]	Melting temperature (Tm) shift [18] [degrees Celcius]	Melting temperature (Tm) shift [19] [degrees Celcius]	Melting temperature (Tm) shift [20] [degrees Celcius]	Melting temperature (Tm) shift [21] [degrees Celcius]	Melting temperature (Tm) shift [22] [degrees Celcius]	Melting temperature (Tm) shift [23] [degrees Celcius]	Melting temperature (Tm) shift [24] [degrees Celcius]	Melting temperature (Tm) shift [25] [degrees Celcius]	Melting temperature (Tm) shift [26] [degrees Celcius]	Melting temperature (Tm) shift [27] [degrees Celcius]	Melting temperature (Tm) shift [28] [degrees Celcius]	Melting temperature (Tm) shift [29] [degrees Celcius]	also measured
Nc1ncnc2c1ncn2[C@@H]1O[C@H](COP(=O)(O)OP(=O)(O)OP(=O)(O)O)[C@@H](O)[C@H]1O [ATP]	–	–	–	–	–	–	–	–	–	–	–	–	–	–	–	Km [1]: 564 ± 36 µM; Km [2]: 238 ± 12 µM; Km [3]: 145 ± 4 µM; Km [4]: 130 ± 13 µM; Km [5]: 470 ± 69 µM; Km [6]: 49 ± 11 µM; Km [7]: 53 ± 13 µM; Km [8]: 11 ± 1 µM; Km [9]: 11 ± 1 µM; Km [10]: 5 ± 0.4 µM; Km [11]: 140 ± 12 µM; Km [12]: 66 ± 2 µM; Km [13]: 134 ± 16 µM; Km [14]: 226 ± 33 µM
N#Cc1cnc2cnc(NCc3cccnc3)cc2c1Nc1ccc(F)c(Cl)c1 [Tpl2 Kinase Inhibitor]	0.1	0.2	0.5	0.3	1.4	0.5	0.2	0.0	0.6	0.5	0.1	0.1	0.4	0.2	0.2	–
Chk2 Inhibitor	0.0	2.9	1.9	8.7	1.4	2.6	0.6	3.0	0.6	0.7	0.3	0.3	3.4	2.3	0.2	–
DNA-PK Inhibitor V	0.1	0.0	0.2	0.2	0.6	0.3	0.3	0.1	0.5	0.4	0.0	0.0	0.5	0.0	0.2	–
Wee1/Chk1 Inhibitor	0.1	0.2	0.8	5.9	2.2	0.3	0.2	0.2	1.5	0.7	1.0	0.1	3.7	1.1	0.1	–
